Results taken from patent publication US5320955A, “10'desmethoxystreptonigrin production by Streptomyces albus” (priority 1992, dated 1994).
Values after ≈ are worked out from the molar mass of the structure shown. Values joined by “and” are separate entries in the source; they are usually repeats but may differ in a detail not shown here. Equal entries are not always repeated. Where two headings read alike, the source gives them in different places.

Key:
[1] = target: protein-cysteine farnesyltransferase; test: Inhibition of farnesylation of p21 ras protein; assay type: biochemical; conditions: assay of Manne et al.; read-out: IC50 in inhibiting the farnesylation of p21 ras protein
Streptococcus agalactiae = test: Antibacterial activity in vitro, agar dilution MIC; assay type: cell-based; conditions: 18 hours, read-out: Minimum Inhibitory Concentration (MIC)
Method: (§1) The following methodology was used to determine the minimum inhibitory concentration (hereinafter referred to as MIC) of 10'-desmethoxystreptonigrin against bacteria. The test organisms were grown in 20 ml of Antiobiotic Assay Broth (Difco) by inoculating the broth (in tubes) with a loopful of the organism from a BHI (Difco) agar slant. The inoculated tubes were incubated at 37° C. for 18 to 24 hours. These cultures were assumed to contain 10^9 colony forming units (CFU) per ml. The cultures were diluted 1:100 to give a final inoculum level of 10^7 CFU; dilutions were made with Yeast-Beef Broth (Difco). The test compound was dissolved in an appropriate diluent at a concentration of 1,000 μg/ml. Two-fold dilutions were made in Yeast-Beef Broth (Difco), resulting in a range from 1000 μg/ml to 0.5 μg/ml. A 1.5 ml portion of each dilution was placed into individual petri dishes to which 13.5 ml of K-10 agar was added. The composition of K-10 agar is:
(§2) The medium was sterilized at 121° C. for 15 minutes at 15 lbs. psi.
(§3) The final drug concentration in the agar ranged from 100 μg/mL to 0.05 μg/mL. Organism growth control plates containing agar only were prepared and inoculated before and after the test plates. The organisms were applied to the agar surface of each plate with a Denly Multipoint Inoculator (which delivers approximately 0.001 mL of each inoculum) resulting in a final inoculum of 10^4 CFU on the agar plate.
(§4) The plates were incubated at 37° C. for 18 hours and the MICs determined. The MIC is the lowest concentration of compound inhibiting growth of the organism.

Listerella monocytogenes = test: Antibacterial activity in vitro, agar dilution MIC; assay type: cell-based; conditions: strain SC# 8523; 37° C., 18 hours; read-out: Minimum Inhibitory Concentration (MIC)
Method: as §1, §2, §3, §4

Enterobacter aerogenes = test: Antibacterial activity in vitro, agar dilution MIC; assay type: cell-based; conditions: Klebsiella aerogenes, SC10078; strain SC# 10078; 37° C., 18 hours; read-out: Minimum Inhibitory Concentration (MIC)
Method: as §1, §2, §3, §4

Micrococcus luteus = test: Antibacterial activity in vitro, agar dilution MIC; assay type: cell-based; conditions: SC2495, strain SC# 2495, 37° C., 18 hours, read-out: Minimum Inhibitory Concentration (MIC)
Method: as §1, §2, §3, §4

Shigella sonnei = test: Antibacterial activity in vitro, agar dilution MIC; assay type: cell-based; conditions: SC8449, strain SC# 8449, 37° C., 18 hours, read-out: Minimum Inhibitory Concentration (MIC)
Method: as §1, §2, §3, §4

Nocardia autotrophica = test: Antibacterial activity in vitro, agar dilution MIC; assay type: cell-based; conditions: Pseudonocardia autotrophica, SC8994; strain SC# 8994; 37° C., 18 hours; read-out: Minimum Inhibitory Concentration (MIC)
Method: as §1, §2, §3, §4

Proteus vulgaris = test: Antibacterial activity in vitro, agar dilution MIC; assay type: cell-based; conditions: SC9416, strain SC# 9416, 37° C., 18 hours, read-out: Minimum Inhibitory Concentration (MIC)
Method: as §1, §2, §3, §4

Salmonella typhosa = test: Antibacterial activity in vitro, agar dilution MIC; assay type: cell-based; conditions: Salmonella enterica, SC1195 / TYPHOSA; strain SC# 1195; 37° C., 18 hours; read-out: Minimum Inhibitory Concentration (MIC)
Method: as §1, §2, §3, §4

Escherichia coli = test: Antibacterial activity in vitro, agar dilution MIC; assay type: cell-based; conditions: 18 hours, read-out: Minimum Inhibitory Concentration (MIC)
Method: as §1, §2, §3, §4

[2] = system: Acinetobacter calcoaceticus; test: Antibacterial activity in vitro, agar dilution MIC; assay type: cell-based; conditions: SC8333, strain SC# 8333, 37° C., 18 hours, read-out: Minimum Inhibitory Concentration (MIC)
Method: as §1, §2, §3, §4

Acinetobacter anitratus = test: Antibacterial activity in vitro, agar dilution MIC; assay type: cell-based; conditions: Acinetobacter calcoaceticus, SC14207; strain SC# 14207; 37° C., 18 hours; read-out: Minimum Inhibitory Concentration (MIC)
Method: as §1, §2, §3, §4

Staphylococcus aureus = test: Antibacterial activity in vitro, agar dilution MIC; assay type: cell-based; conditions: 18 hours, read-out: Minimum Inhibitory Concentration (MIC)
Method: as §1, §2, §3, §4

Enterobacter cloacae = test: Antibacterial activity in vitro, agar dilution MIC; assay type: cell-based; conditions: SC8236, strain SC# 8236, 37° C., 18 hours, read-out: Minimum Inhibitory Concentration (MIC)
Method: as §1, §2, §3, §4

Bacillus subtilis = test: Antibacterial activity in vitro, agar dilution MIC; assay type: cell-based; conditions: SC3777, strain SC# 3777, 37° C., 18 hours, read-out: Minimum Inhibitory Concentration (MIC)
Method: as §1, §2, §3, §4

Klebsiella pneumoniae = test: Antibacterial activity in vitro, agar dilution MIC; assay type: cell-based; conditions: 18 hours, read-out: Minimum Inhibitory Concentration (MIC)
Method: as §1, §2, §3, §4

Proteus mirabilis = test: Antibacterial activity in vitro, agar dilution MIC; assay type: cell-based; conditions: SC3855, strain SC# 3855, 37° C., 18 hours, read-out: Minimum Inhibitory Concentration (MIC)
Method: as §1, §2, §3, §4

Streptococcus faecalis = test: Antibacterial activity in vitro, agar dilution MIC; assay type: cell-based; conditions: Enterococcus faecalis, 37° C., 18 hours, read-out: Minimum Inhibitory Concentration (MIC)
Method: as §1, §2, §3, §4

Pseudomonas cepacia = test: Antibacterial activity in vitro, agar dilution MIC; assay type: cell-based; conditions: Burkholderia cepacia, SC14164; strain SC# 14164; 37° C., 18 hours; read-out: Minimum Inhibitory Concentration (MIC)
Method: as §1, §2, §3, §4

Serratia marcescens = test: Antibacterial activity in vitro, agar dilution MIC; assay type: cell-based; conditions: SC9783, strain SC# 9783, 37° C., 18 hours, read-out: Minimum Inhibitory Concentration (MIC)
Method: as §1, §2, §3, §4

Mycobacterium fortuitum = test: Antibacterial activity in vitro, agar dilution MIC; assay type: cell-based; conditions: Mycolicibacterium fortuitum, SC8571; strain SC# 8571; 37° C., 18 hours; read-out: Minimum Inhibitory Concentration (MIC)
Method: as §1, §2, §3, §4

Pseudomonas aeruginosa = test: Antibacterial activity in vitro, agar dilution MIC; assay type: cell-based; conditions: read-out: Minimum Inhibitory Concentration (MIC)
Method: as §1, §2, §3, §4

[3] = system: A2780S human ovarian cells; test: cells; assay type: cell-based
Method: (§5) 10'-Desmethoxystreptonigrin was also tested for cytotoxicity in vitro against human tumor cell lines according to the method of Catino et al., "A microtitre cytotoxicity assay useful for the discovery of fermentation derived antitumor agents", Cancer Chemother., Pharmacol. 15: 240-243 (1985). Modification of the dye employed therein was made according to Scudiero et al., "Evaluation of a soluble tetrazolium/formazan assay for cell growth and drug sensitivity in culture using human and other tumor cell lines," Cancer Research 48:4827-4833,1 (1988). The assays were performed in triplicate against human ovarian (A2780DDP and A2780S) and colon (HCT-116, HCT/VM46 and HCT/VP35) tumor cell lines. Such cell lines are, for example, described by Long et al., "The effects of mitomycin on human colon carcinoma cells," J. Nat. Cancer Inst. 73: 787-792 (1984) (HCT-116) and Masuda et al., "Increased DNA repair as a mechanism of acquired resistance to cis-diamminedichloroplatinum (II) in human ovarian cancer cell lines," Cancer Research 48: 5713-5716 (1988) (A2780 ).

P388 murine leukemia = test: In vivo tests in mice, intraperitoneally implanted P388 murine leukemia model; conditions: intraperitoneally implanted P388, nontoxic levels
Source text: ^+ In vivo tests in mice using the intraperitoneally implanted P388
lifespan compared to control groups at nontoxic levels of
10desmethoxystreptonigrin.

[4] = system: HCT/VM46 human colon cells; test: In vitro cytotoxicity vs. human tumor cell lines; assay type: cell-based; conditions: HCT/VM46, resistant to teniposide, in triplicate, each printed
Method: as §5

[5] = system: HCT/VP35 human colon cells; test: In vitro cytotoxicity vs. human tumor cell lines; assay type: cell-based; conditions: in triplicate, each printed
Method: as §5

[6] = system: HCT-116 human colon cells; test: In vitro cytotoxicity vs. human tumor cell lines; assay type: cell-based; conditions: in triplicate, each printed
Method: as §5

tumor = conditions: background statement; cited from earlier work
[7] = background statement; cited from earlier work

COC1=C(N)C(=O)c2nc(-c3nc(C(=O)O)c(C)c(-c4cccc(OC)c4O)c3N)ccc2C1=O [10'-Desmethoxystreptonigrin, 5'-amino-6'-(7-amino-5,8-dihydro-6-methoxy-5,8-dioxo-2-quinolyl)-4'-(8'-hydroxy-9'-methoxyphenyl)-3'-methyl-2'-pyridinecarboxylic acid] showed an IC50 [1] of 23.5 µM, an MIC (Streptococcus agalactiae; SC9287, strain SC# 9287, 37° C.) of 1.6 µg/mL (≈ 3.36 µM) and an MIC (Streptococcus agalactiae; SC14008, strain SC# 14008, 37° C.) of 1.6 µg/mL (≈ 3.36 µM). The MIC (Listerella monocytogenes) was 1.6 µg/mL (≈ 3.36 µM), the MIC (Enterobacter aerogenes) was 25 µg/mL (≈ 52.5 µM) and the MIC (Micrococcus luteus) was 0.4 µg/mL (≈ 0.84 µM). For the same compound, the MIC (Shigella sonnei) was 1.6 µg/mL (≈ 3.36 µM), the MIC (Nocardia autotrophica) was 3.1 µg/mL (≈ 6.51 µM) and the MIC (Proteus vulgaris) was 0.4 µg/mL (≈ 0.84 µM). The MIC (Salmonella typhosa) was 1.6 µg/mL (≈ 3.36 µM), the MIC (Escherichia coli; SC8294, strain SC# 8294, 37° C.) was 3.1 µg/mL (≈ 6.51 µM) and the MIC (Escherichia coli; SC10857, strain SC# 10857, 37° C.) was 0.8 µg/mL (≈ 1.68 µM). The MIC (Escherichia coli; SC10896, strain SC# 10896, 37° C.) was 0.4 µg/mL (≈ 0.84 µM), the MIC (Escherichia coli; SC10909, strain SC# 10909, 37° C.) was under 0.05 µg/mL and the MIC (Escherichia coli; SC12864, strain SC# 12864, 37° C.) was 1.6 µg/mL (≈ 3.36 µM). It also gave an MIC [2] of over 100 µg/mL, an MIC (Acinetobacter anitratus) of 3.1 µg/mL (≈ 6.51 µM) and an MIC (Staphylococcus aureus; SC1276, strain SC# 1276, 37° C.) of 0.4 µg/mL (≈ 0.84 µM). It also gave an MIC (Staphylococcus aureus; SC2399, strain SC# 2399, 37° C.) of 0.2 µg/mL (≈ 0.42 µM), an MIC (Staphylococcus aureus; SC2400, strain SC# 2400, 37° C.) of 0.2 µg/mL (≈ 0.42 µM) and an MIC (Staphylococcus aureus; SC10165, strain SC# 10165, 37° C.) of 0.2 µg/mL (≈ 0.42 µM). The MIC (Enterobacter cloacae) was over 100 µg/mL, the MIC (Bacillus subtilis) was 0.2 µg/mL (≈ 0.42 µM) and the MIC (Klebsiella pneumoniae; SC9527, strain SC# 9527, 37° C.) was 3.1 µg/mL (≈ 6.51 µM). The MIC (Klebsiella pneumoniae; SC10440, strain SC# 10440, 37° C.) was 3.1 µg/mL (≈ 6.51 µM), the MIC (Proteus mirabilis) was 3.1 µg/mL (≈ 6.51 µM) and the MIC (Streptococcus faecalis; SC9011, strain SC# 9011) was 1.6 µg/mL (≈ 3.36 µM). The MIC (Streptococcus faecalis; SC9610, strain SC# 9610) was 1.6 µg/mL (≈ 3.36 µM), the MIC (Pseudomonas cepacia) was over 25 µg/mL and the MIC (Serratia marcescens) was 6.3 µg/mL (≈ 13.2 µM). For the same compound, the MIC (Mycobacterium fortuitum) was 50 µg/mL (≈ 105 µM), the MIC (Pseudomonas aeruginosa; SC8329, 18 h) was 6.3 µg/mL (≈ 13.2 µM) and the MIC (Pseudomonas aeruginosa; SC9545, strain SC# 9545, 37° C., 18 hours) was 1.6 µg/mL (≈ 3.36 µM). For the same compound, the IC50 ([3]; Homo sapiens, read-out: IC50 cytotoxicity, A2780S, in triplicate, each printed) was 0.001 µg/mL (≈ 0.0021 µM), the IC50 cytotoxicity ([3]; in triplicate, each printed) was 0.002 µg/mL and < 0.001 µg/mL and the “increase in lifespan compared to control groups” value (P388 murine leukemia) was “no statistically significant increase”. For the same compound, the IC50 cytotoxicity [4] was 0.002 µg/mL and < 0.001 µg/mL, the IC50 ([4]; Homo sapiens) was 0.001 µg/mL (≈ 0.0021 µM) and the IC50 cytotoxicity ([5]; HCT/VP35, resistant to etoposide) was 0.002 µg/mL (≈ 0.0042 µM). For the same compound, the IC50 ([5]; Homo sapiens, HCT/VP35, HCT/VP35, resistant to etoposide) was 0.003 µg/mL (≈ 0.0063 µM), the IC50 cytotoxicity ([6]; HCT-116) was 0.003 µg/mL (≈ 0.0063 µM) and the IC50 ([6]; Homo sapiens, HCT-116, HCT-116) was 0.006 µg/mL (≈ 0.0126 µM).

For COC1=C(N)C(=O)c2nc(-c3nc(C(=O)O)c(C)c(-c4ccc(OC)c(OC)c4O)c3N)ccc2C1=O [streptonigrin, 5'-amino-6'-(7-amino-5,-8-dihydro-6-methoxy-5,8-dioxo-2-quinolyl)-4'-(8'-hydroxy-9',10'-dimethoxyphenyl)-3'-methyl-2'-pyridinecarboxylic acid], the “activity as an antitumor antibiotic” value (tumor) is listed as “has shown activity as an antitumor antibiotic” and the “toxic effect, for example, in bone marrow depression” value [7] is listed as “significant toxic effect”.
